Results: patent US9718828B2 (MERCK SHARP & DOHME CORP., priority 2011, dated 2017)
Where a name gives a salt, the structure may show the parent alone. Read-outs that look alike come from different tables or passages of the source.

Molecular target: Btk enzyme (His-Btk) (Homo sapiens (Human), UniProt Q06187)
Assay: Btk enzyme activity, IMAP fluorescence polarization assay (Assay Method A)
[1] = read-out: EC50 Btk activity values - Assay Method A, IMAP-FP, 60 min pre-incubation, 5 μM ATP, class 100-1000 is given as ≧100 nM-<1 μM

Btk enzyme (His-Btk), sequence (Q06187 whole entry): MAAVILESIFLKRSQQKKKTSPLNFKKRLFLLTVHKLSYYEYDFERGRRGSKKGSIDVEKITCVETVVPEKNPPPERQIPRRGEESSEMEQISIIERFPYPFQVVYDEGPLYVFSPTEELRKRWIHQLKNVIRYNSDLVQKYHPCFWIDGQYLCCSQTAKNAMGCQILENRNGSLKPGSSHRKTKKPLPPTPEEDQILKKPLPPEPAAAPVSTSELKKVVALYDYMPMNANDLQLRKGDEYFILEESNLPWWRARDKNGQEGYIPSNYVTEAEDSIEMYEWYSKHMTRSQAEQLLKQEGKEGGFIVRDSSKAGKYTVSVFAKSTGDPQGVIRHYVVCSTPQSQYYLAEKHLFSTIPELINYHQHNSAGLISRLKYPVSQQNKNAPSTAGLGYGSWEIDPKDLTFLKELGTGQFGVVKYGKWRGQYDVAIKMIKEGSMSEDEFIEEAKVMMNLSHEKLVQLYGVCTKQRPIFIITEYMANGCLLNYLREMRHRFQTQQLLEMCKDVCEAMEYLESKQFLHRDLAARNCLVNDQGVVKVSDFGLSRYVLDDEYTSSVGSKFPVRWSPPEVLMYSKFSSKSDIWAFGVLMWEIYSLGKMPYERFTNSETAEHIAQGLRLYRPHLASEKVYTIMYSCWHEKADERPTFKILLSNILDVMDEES

SMILES	EC50 [nM]	other results
Nc1ncnc2c1c(-c1ccc(C(=O)Nc3cc(C(F)(F)F)ccn3)cc1)nn2[C@@H]1CCCN(C(=O)C2CC(F)(F)C2)C1 [Example 278, (R)-4-(4-amino-1-(1-(3,3-difluorocyclobutanecarbonyl)piperidin-3-yl)-1H-pyrazolo[3,4-d]pyrimidin-3-yl)-N-(4-(trifluoromethyl)pyridin-2-yl)benzamide]	–	EC50 [1]: < 10 nM
COCCC(=O)N1CCC[C@@H](n2nc(-c3ccc(C(=O)Nc4cc(C(F)(F)F)ccn4)cc3)c3c(N)ncnc32)C1 [Example 280, (R)-4-(4-amino-1-(1-(3-methoxypropanoyl)piperidin-3-yl)-1H-pyrazolo[3,4-d]pyrimidin-3-yl)-N-(4-(trifluoromethyl)pyridin-2-yl)benzamide]	–	EC50 [1]: < 10 nM
CCOCCC(=O)N1CCC[C@@H](n2nc(-c3ccc(C(=O)Nc4cc(C(F)(F)F)ccn4)cc3)c3c(N)ncnc32)C1 [Example 281, (R)-4-(4-amino-1-(1-(3-ethoxypropanoyl)piperidin-3-yl)-1H-pyrazolo[3,4-d]pyrimidin-3-yl)-N-(4-(trifluoromethyl)pyridin-2-yl)benzamide]	–	EC50 [1]: < 10 nM
COCCC(=O)N1CCC[C@@H](c2nc(-c3ccc(C(=O)Nc4ccccn4)c(F)c3)c3c(N)nccn23)C1 [Example 282, (R)-4-(8-amino-3-(1-(3-methoxypropanoyl)piperidin-3-yl)imidazo[1,5-a]pyrazin-1-yl)-2-fluoro-N-(pyridin-2-yl)benzamide, TFA salt]	< 10	–
COCCC(=O)N1CCC[C@@H](c2nc(-c3ccc(C(=O)Nc4ccccn4)cc3C(F)(F)F)c3c(N)nccn23)C1 [Example 283, 4-(8-amino-3-((R)-1-(3-methoxypropanoyl)piperidin-3-yl)imidazo[1,5-a]pyrazin-1-yl)-N-(pyridin-2-yl)-3-(trifluoromethyl)benzamide, TFA salt]	–	EC50 (read-out: EC50 Btk activity values - Assay Method A, IMAP-FP, 60 min pre-incubation, 5 μM ATP): ≥ 1000 nM
COCCC(=O)N1CCC[C@@H](c2nc(-c3ccc(C(=O)Nc4ccccn4)cc3F)c3c(N)nccn23)C1 [Example 284, 4-(8-amino-3-((R)-1-(3-methoxypropanoyl)piperidin-3-yl)imidazo[1,5-a]pyrazin-1-yl)-3-fluoro-N-(pyridin-2-yl)benzamide, TFA salt]	–	EC50 [1]: < 10 nM
COCCC(=O)N1CCC[C@@H](c2nc(-c3ccc(C(=O)Nc4ccccn4)cc3C)c3c(N)nccn23)C1 [Example 285, 4-(8-amino-3-((R)-1-(3-methoxypropanoyl)piperidin-3-yl)imidazo[1,5-a]pyrazin-1-yl)-3-methyl-N-(pyridin-2-yl)benzamide, TFA salt]	10 to 100	–
COCCC(=O)N1CCC[C@@H](c2nc(-c3ccc(C(=O)Nc4ccccn4)c(C)c3)c3c(N)nccn23)C1 [Example 286, (R)-4-(8-amino-3-(1-(3-methoxypropanoyl)piperidin-3-yl)imidazo[1,5-a]pyrazin-1-yl)-2-methyl-N-(pyridin-2-yl)benzamide, TFA salt]	10 to 100	–
COCCC(=O)N1CCC[C@@H](c2nc(-c3ccc(C(=O)Nc4ccccn4)nc3)c3c(N)nccn23)C1 [Example 287, (R)-5-(8-amino-3-(1-(3-methoxypropanoyl)piperidin-3-yl)imidazo[1,5-a]pyrazin-1-yl)-N-(pyridin-2-yl)picolinamide, TFA salt]	10 to 100	–
COCCC(=O)N1CCC[C@@H](c2nc(-c3ccc(C(=O)Nc4ccccn4)cn3)c3c(N)nccn23)C1 [Example 288, (R)-6-(8-amino-3-(1-(3-methoxypropanoyl)piperidin-3-yl)imidazo[1,5-a]pyrazin-1-yl)-N-(pyridin-2-yl) nicotinamide]	100 to 1000	–
Nc1nccn2c([C@@H]3CCCN(C(=O)[C@H](O)CO)C3)nc(-c3ccc(C(=O)Nc4cc(C5CC5)ccn4)cc3)c12 [Example 289, 4-(8-amino-3-((R)-1-((R)-2,3-dihydroxypropanoyl)piperidin-3-yl)imidazo[1,5-a]pyrazin-1-yl)-N-(4-cyclopropylpyridin-2-yl)benzamide]	–	EC50 [1]: < 10 nM
CC1(C(=O)N2CCC[C@@H](c3nc(-c4ccc(C(=O)Nc5cnccn5)cc4)c4c(N)nccn34)C2)COC1 [Example 290, (R)-4-(8-amino-3-(1-(3-methyloxetane-3-carbonyl)piperidin-3-yl)imidazo[1,5-a]pyrazin-1-yl)-N-(pyrazin-2-yl)benzamide]	10 to 100	–
CCCc1ccnc(NC(=O)c2ccc(-c3nc(C)n4c(C(=O)NCCCOC)cnc(N)c34)cc2)c1 [Example 294, 8-amino-N-(3-methoxypropyl)-3-methyl-1-(4-(4-propylpyridin-2-ylcarbamoyl)phenyl)imidazo[1,5-a]pyrazine-5-carboxamide]	100 to 1000	–
CCCc1ccnc(NC(=O)c2ccc(-c3nc(C4CCOCC4)n4c(Cl)cnc(N)c34)cc2)c1 [Example 298, 4-(8-amino-5-chloro-3-(tetrahydro-2H-pyran-4-yl)imidazo[1,5-a]pyrazin-1-yl)-N-(4-propylpyridin-2-yl)benzamide]	–	EC50 [1]: < 10 nM

The next lines start with results.

EC50 [nM]	SMILES	other results
10 to 100	CC(C)C(=O)N1CCC[C@@H](n2nc(-c3ccc(C(=O)Nc4cc(C(F)(F)F)ccn4)cc3)c3c(N)ncnc32)C1 [Example 279, (R)-4-(4-amino-1-(1-isobutyrylpiperidin-3-yl)-1H-pyrazolo[3,4-d]pyrimidin-3-yl)-N-(4-(trifluoromethyl)pyridin-2-yl)benzamide]	–
100 to 1000	COCCCNC(=O)c1cnc(N)c2c(-c3ccc(C(=O)Nc4cc(C(F)(F)F)ccn4)cc3)nc(C)n12 [Example 291, 8-amino-N-(3-methoxypropyl)-3-methyl-1-(4-(4-(trifluoromethyl)pyridin-2-ylcarbamoyl)phenyl)imidazo[1,5-a]pyrazine-5-carboxamide]	–
100 to 1000	Cc1nc(-c2ccc(C(=O)Nc3cc(C(F)(F)F)ccn3)cc2)c2c(N)ncc(C(=O)NCc3ccccc3)n12 [Example 292, 8-amino-N-benzyl-3-methyl-1-(4-(4-(trifluoromethyl)pyridin-2-ylcarbamoyl)phenyl)imidazo[1,5-a]pyrazine-5-carboxamide]	–
≥ 1000	Cc1nc(-c2ccc(C(=O)Nc3cc(C(F)(F)F)ccn3)cc2)c2c(N)ncc(C(=O)N(C)C)n12 [Example 293, 8-amino-N,N,3-trimethyl-1-(4-(4-(trifluoromethyl)pyridin-2-ylcarbamoyl)phenyl)imidazo[1,5-a]pyrazine-5-carboxamide]	–
100 to 1000	Cc1nc(-c2ccc(C(=O)Nc3cc(C(F)(F)F)ccn3)cc2)c2c(N)ncc(C(=O)NC3CCN(C)CC3)n12 [Example 295, 8-amino-3-methyl-N-(1-methylpiperidin-4-yl)-1-(4-(4-(trifluoromethyl)pyridin-2-ylcarbamoyl)phenyl)imidazo[1,5-a]pyrazine-5-carboxamide]	–
100 to 1000	Cc1nc(-c2ccc(C(=O)Nc3cc(C(F)(F)F)ccn3)cc2)c2c(N)ncc(C(=O)NCc3cccnc3)n12 [Example 296, 8-amino-3-methyl-N-(pyridin-3-ylmethyl)-1-(4-(4-(trifluoromethyl)pyridin-2-ylcarbamoyl)phenyl)imidazo[1,5-a]pyrazine-5-carboxamide]	–
100 to 1000	Cc1nc(-c2ccc(C(=O)Nc3cc(C(F)(F)F)ccn3)cc2)c2c(N)ncc(C(=O)NCc3cnco3)n12 [Example 297, 8-amino-3-methyl-N-(oxazol-5-ylmethyl)-1-(4-(4-(trifluoromethyl)pyridin-2-ylcarbamoyl)phenyl)imidazo[1,5-a]pyrazine-5-carboxamide]	–
